Measured values: US8952024B2, “Herbicidal pyrimidone derivatives” (E I du Pont de Nemours and Company, priority 2009, dated 2015)

What was measured:
Experiment in all cases: Test C plant response
Format in all cases: in vivo
[1] = test system: oilseed rape (Brassica napus); settings: Preemergence, scale 0 to 100
[2] = test system: wild mustard (Sinapis arvensis); settings: Preemergence, scale 0 to 100
[3] = test system: winter barley (Hordeum vulgare); settings: Preemergence, scale 0 to 100
wild oat (Avena fatua) = settings: Preemergence, scale 0 to 100
[4] = test system: chickweed (common chickweed, Stellaria media); settings: Preemergence, 125 g ai/ha; scale 0 to 100
[5] = test system: bromegrass (downy bromegrass, Bromus tectorum); settings: Preemergence, scale 0 to 100
[6] = test system: Italian ryegrass (Lolium multiflorum); settings: Preemergence, scale 0 to 100
[7] = test system: bluegrass (annual bluegrass, Poa annua); settings: Preemergence, scale 0 to 100
[8] = test system: pigweed (Amaranthus retroflexus); settings: Preemergence, scale 0 to 100
[9] = test system: buckwheat (wild buckwheat, Polygonum convolvulus); settings: Preemergence, scale 0 to 100
kochia (Kochia scoparia) = settings: Preemergence, scale 0 to 100

Cc1ccccc1-n1c(-c2ccccc2)ncc(C(=O)C2=C(O)CCCC2=O)c1=O [Compound 12]
65: Plant response rating: Pigweed ([8]; 125 g ai/ha)
5: Plant response rating: Mustard, Wild ([2]; 62 g ai/ha) | Plant response rating: Kochia (kochia (Kochia scoparia); 62 g ai/ha) | Plant response rating: Kochia (kochia (Kochia scoparia); 16 g ai/ha) | Plant response rating: Kochia (kochia (Kochia scoparia); 31 g ai/ha)
20: Plant response rating: Oilseed Rape ([1]; 31 g ai/ha) | Plant response rating: Bluegrass ([7]; 62 g ai/ha)
50: Plant response rating: Chickweed [4] | Plant response rating: Pigweed ([8]; 62 g ai/ha)
0: Plant response rating: Oilseed Rape ([1]; 16 g ai/ha) | Plant response rating: Mustard, Wild ([2]; 16 g ai/ha) | Plant response rating: Barley, Winter ([3]; 62 g ai/ha) | Plant response rating: Barley, Winter ([3]; 125 g ai/ha) | Plant response rating: Barley, Winter ([3]; 16 g ai/ha) | Plant response rating: Barley, Winter ([3]; 31 g ai/ha) | Plant response rating: Oat, Wild (wild oat (Avena fatua); 62 g ai/ha) | Plant response rating: Oat, Wild (wild oat (Avena fatua); 125 g ai/ha) | Plant response rating: Oat, Wild (wild oat (Avena fatua); 16 g ai/ha) | Plant response rating: Oat, Wild (wild oat (Avena fatua); 31 g ai/ha) | Plant response rating: Bromegrass, Downy ([5]; 62 g ai/ha) | Plant response rating: Bromegrass, Downy ([5]; 125 g ai/ha) | Plant response rating: Bromegrass, Downy ([5]; 16 g ai/ha) | Plant response rating: Bromegrass, Downy ([5]; 31 g ai/ha) | Plant response rating: Ryegrass, Italian ([6]; 62 g ai/ha) | Plant response rating: Ryegrass, Italian ([6]; 125 g ai/ha) | Plant response rating: Ryegrass, Italian ([6]; 16 g ai/ha) | Plant response rating: Ryegrass, Italian ([6]; 31 g ai/ha) | Plant response rating: Bluegrass ([7]; 16 g ai/ha) | Plant response rating: Bluegrass ([7]; 31 g ai/ha) | Plant response rating: Pigweed ([8]; 16 g ai/ha) | Plant response rating: Pigweed ([8]; 31 g ai/ha) | Plant response rating: Buckwheat, Wild ([9]; 62 g ai/ha) | Plant response rating: Buckwheat, Wild ([9]; 16 g ai/ha) | Plant response rating: Buckwheat, Wild ([9]; 31 g ai/ha)
25: Plant response rating: Kochia (kochia (Kochia scoparia); 125 g ai/ha)
40: Plant response rating: Oilseed Rape ([1]; 125 g ai/ha) | Plant response rating: Buckwheat, Wild ([9]; 125 g ai/ha)
30: Plant response rating: Oilseed Rape ([1]; 62 g ai/ha)
35: Plant response rating: Bluegrass ([7]; 125 g ai/ha)
